In patent publication US9145354B2, “Pharmaceutical compounds” (priority 2011, dated 2015):
Read-outs that look alike come from different tables or passages of the source.

Target: full length NS3/4a (Hepatitis C virus genotype 1b (isolate BK) (HCV), UniProt P26663)
Assay: NS3 Protease Assay (Example A), FRET-based
Assay type: biochemical
Outline: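 Full-length NS3/4a, made in-house, with an NS4A/B-derived peptide substrate carrying QXL520 quencher and 5-FAMsp fluorophore. Buffer 50 mM Tris pH8, 20 mM DTT, 1% CHAPS, 10% glycerol, 5% DMSO. Fluorescence followed 30 min at room temperature; IC50 from initial rates of replicate curves.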

[1] = HCV NS3 protease assay, full length NS3/4a, read-out: Assay A IC50 (μM) average
[2] = read-out: IC50 against the protease activity of the full length NS3/4a
[3] = stated as IC50 less than 30 μM or at least 40% inhibition at a concentration of 100 μM, read-out: IC50 against the protease activity of the full length NS3/4a

full length NS3/4a, sequence (P26663 1027-1657): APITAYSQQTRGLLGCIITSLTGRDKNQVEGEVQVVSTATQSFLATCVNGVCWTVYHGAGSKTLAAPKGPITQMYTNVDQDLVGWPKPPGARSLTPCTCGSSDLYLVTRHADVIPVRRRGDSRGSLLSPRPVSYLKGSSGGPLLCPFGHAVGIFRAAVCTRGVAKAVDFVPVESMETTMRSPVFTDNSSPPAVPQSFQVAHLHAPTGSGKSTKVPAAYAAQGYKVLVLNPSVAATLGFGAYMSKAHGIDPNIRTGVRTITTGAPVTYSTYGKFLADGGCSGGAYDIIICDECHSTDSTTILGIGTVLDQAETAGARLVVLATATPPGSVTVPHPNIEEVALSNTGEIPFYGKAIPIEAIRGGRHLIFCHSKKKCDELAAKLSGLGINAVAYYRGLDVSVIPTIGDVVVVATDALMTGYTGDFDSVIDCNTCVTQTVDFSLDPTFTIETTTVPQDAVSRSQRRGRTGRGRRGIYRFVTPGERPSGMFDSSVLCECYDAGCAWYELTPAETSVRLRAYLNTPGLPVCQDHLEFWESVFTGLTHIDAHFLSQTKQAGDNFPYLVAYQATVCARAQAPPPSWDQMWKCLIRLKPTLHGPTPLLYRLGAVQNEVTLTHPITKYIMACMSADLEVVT

SMILES | IC50 [1] [µM] | IC50 [2] [µM] | other results
CC[C@@H](N[C@H](C)CC(N)=O)c1ccc(Cl)c(C(=O)c2ccccc2)c1F [Example 83, (3R)-3-{[(1R)-1-(3-benzoyl-4-chloro-2-fluorophenyl)propyl]-amino}butanamide] | 0.5 |  | 
CC[C@H](N[C@H](C)CC(N)=O)c1ccc(Cl)c(C(=O)c2ccccc2)c1F [Example 85, (3R)-3-{[(1S)-1-(3-benzoyl-4-chloro-2-fluorophenyl)-propyl]-amino}butanamide] | 0.061 |  | 
CC[C@H](N[C@@H](C)CC(N)=O)c1ccc(Cl)c(C(=O)c2ccccc2)c1F [Example 86, (3S)-3-{[(1S)-1-(3-benzoyl-4-chloro-2-fluorophenyl)-propyl]amino}butanamide] | 1 | 1 to 5 | 
CC[C@@H](N[C@H](C)CC(=O)NCCN)c1ccc(Cl)c(C(=O)c2ccccc2)c1F [Example 87, (3R)—N-(2-Aminoethvl)-3-{[(1R)-1-(3-benzoyl-4-chloro-2-fluorophenyl)propyl]-amino}butanamide] |  |  | inhibition at 0.01 µM (@ 0.01 uM): 54%
CC[C@H](N[C@@H](C)CC(=O)NCCN)c1ccc(Cl)c(C(=O)c2ccccc2)c1F [Example 89, (3S)-N-(2-aminoethyl)-3-{[(1S)-1-(3-benzoyl-4-chloro-2-fluorophenyl)propyl]-amino}butanamide] |  |  | inhibition at 0.03 µM: 54%
CC[C@@H](N[C@H](C)CC(N)=O)c1ccc(Cl)c(C(=O)c2ccc(C#N)cc2)c1F [Example 92, (3R)-3-{[(1R)-1-{4-chloro-3-[(4-cyanophenyl)carbonyl]-2-fluorophenyl}propyl]amino}-butanamide] | 0.34 |  | 
CC[C@@H](N[C@H](C)CC(N)=O)c1ccc(Cl)c(C(=O)c2cccnc2)c1F [Example 94, (3R)-3-{[(1R)-1-{4-chloro-2-fluoro-3-[(pyridin-3-yl)carbonyl]phenyl}propyl]amino}butanamide] | 1 | 1 to 5 | 
CC[C@@H](N[C@H](C)CC(N)=O)c1ccc(Cl)c(C(=O)c2cccc(F)c2)c1F [Example 96, (3R)-3-{[(1R)-1-{4-chloro-2-fluoro-3-[(3-fluorophenyl)-carbonyl]phenyl}propyl]amino}butanamide] |  |  | inhibition at 0.3 µM (@ 0.3 uM): 58%
CC[C@@H](N[C@H](C)CC(N)=O)c1ccc(Cl)c(C(=O)c2ccc(F)cc2)c1F [Example 98, (3R)-3-{[(1R)-1-{4-chloro-2-fluoro-3-[(4-fluorophenyl)-carbonyl]phenyl}propyl]amino}butanamide] | 0.6 |  | 
CC[C@@H](N[C@@H](C)CC(N)=O)c1ccc(Cl)c(C(=O)c2ccncn2)c1F [Example 99, (3S)-3-{[(1R)-1-{4-chloro-2-fluoro-3-[(pyrimidin-4-yl)carbonyl]phenyl}propyl]-amino}butanamide] | 0.25 |  | 
CC[C@@H](N[C@H](C)CC(N)=O)c1ccc(Cl)c(C(=O)c2ccncn2)c1F [Example 100, (3R)-3-{[(1R)-1-{4-chloro-2-fluoro-3-[(pyrimidin-4-yl)carbonyl]phenyl}propyl]amino}butanamide] | 14 |  | IC50 [3]: < 30 µM
CC[C@@H](N[C@H](C)CC(N)=O)c1ccc(Cl)c(C(=O)c2cccc(C#N)c2)c1F [Example 102, (3R)-3-{[(1R)-1-{4-chloro-3-[(3-cyanophenyl)carbonyl]-2-fluorophenyl}propyl]amino}-butanamide] | 1.2 | 1 to 5 | 
CC[C@@H](N[C@H](C)CC(N)=O)c1ccc(Cl)c(C(=O)c2ccccn2)c1F [Example 105, (3R)-3-{[(1R)-1-{4-chloro-2-fluoro-3-[(pyridin-2-yl)carbonyl]phenyl}propyl]amino}butanamide] |  |  | inhibition at 30 µM: 57%; IC50 [3]: < 30 µM
CC[C@@H](N[C@H](C)CC(N)=O)c1ccc(Cl)c(C(=O)c2ccncc2)c1F [Example 107, (3R)-3-{[(1R)-1-{4-chloro-2-fluoro-3-[(pyridin-4-yl)carbonyl]phenyl}propyl]-amino}butanamide] | 1.1 | 1 to 5 | 
CC[C@@H](N[C@H](C)CC(N)=O)c1ccc(Cl)c(C(=O)c2ccns2)c1F [Example 109, (3R)-3-{[(1R)-1-{4-chloro-2-fluoro-3-[(1,2-thiazol-5-yl)carbonyl]phenyl}propyl]-amino}butanamide] | 0.47 |  | 
CC[C@@H](N[C@H](C)CC(N)=O)c1ccc(Cl)c(C(=O)c2cc(C)on2)c1F [Example 111, (3R)-3-{[(1R)-1-{4-chloro-2-fluoro-3-[(5-methyl-1,2-oxazol-3-yl)carbonyl]-phenyl}-propyl]amino}-butanamide] | 3.1 | 1 to 5 | 

SMILES | IC50 [1] [µM] | IC50 [2] [µM] | other results
C[C@H](CC(N)=O)N[C@@H](c1ccc(Cl)c(C(=O)c2ccccc2)c1F)C1CC1 [Example 112, (3R)-3-{[(R)-(3-benzoyl-4-chloro-2-fluorophenyl)(cyclopropyl)-methyl]amino}butanamide] | 0.62 |  | 
CC[C@@H](N[C@H](C)CC(N)=O)c1ccc(Cl)c(C(=O)c2ccccc2)c1F [Example 114, (3R)-3-{[(1R)-1-(3-benzoyl-4-chloro-2-fluorophenyl)-(2,2,3,3,3-D)propyl]amino}-butanamide] | 0.75 |  | 
CC[C@@H](N[C@H](C)CC(N)=O)c1ccc(Cl)c(C(=O)c2ccc[n+]([O-])c2)c1F [Example 117, (R)-3-{(R)-1-[4-Chloro-2-fluoro-3-(1-oxy-pyridine-3-carbonyl)-phenyl]propylamino}-butyramide] |  |  | Assay A % inhibition average (@ 10 uM): 16% @ 10 uM
C[C@H](CC(N)=O)N[C@@H](c1ccc(Cl)c(C(=O)c2cccnc2)c1F)C1CC1 [Example 118, (3R)-3-{[(R)-{4-chloro-2-fluoro-3-[(pyridin-3-yl)carbonyl]phenyl}(cyclopropyl)methyl]amino}-butanamide] |  |  | inhibition at 3 µM (@ 3 uM): 41%; IC50 [3]: < 30 µM
C[C@H](CC(N)=O)N[C@@H](c1ccc(Cl)c(C(=O)c2ccc(F)cc2)c1F)C1CC1 [Example 120, (3R)-3-{[(R)-{4-chloro-2-fluoro-3-[(4-fluorophenyl)carbonyl]phenyl}(cyclopropyl)methyl]amino}butanamide] | 1.2 | 1 to 5 | 
CC[C@@H](N[C@@H](C)CC(N)=O)c1ccc(Cl)c(C(=O)c2cccc(C(=O)O)c2)c1F [Example 122, 3-({3-[(1R)-1-{[(2S)-1-carbamoylpropan-2-yl]amino}propyl]-6-chloro-2-fluorophenyl}carbonyl)-benzoic acid] | 1.4 | 1 to 5 | 
CC[C@@H](N[C@H](C)CC(N)=O)c1ccc(Cl)c(C(=O)c2cccc(C(=O)O)c2)c1F [Example 123, 3-({3-[(1R)-1-{[(2R)-1-carbamoylpropan-2-yl]amino}propyl]-6-chloro-2-fluorophenyl}carbonyl)-benzoic acid] | 3.2 | 1 to 5 | 
[2H]C([2H])([2H])C([2H])([2H])[C@@H](N[C@H](C)CC(N)=O)c1ccc(Cl)c(C(=O)c2ccc3c(c2)OCC(=O)N3)c1F [Example 124, (3R)-3-{[(1R)-1-{4-chloro-2-fluoro-3-[(3-oxo-3,4-dihydro-2H-1,4-benzoxazin-7-yl)carbonyl]phenyl} (2,2,3,3,3-deutero)propyl]amino}-butanamide] | 1 | 1 to 5 | 
C[C@H](CC(N)=O)N[C@@H](c1ccc(Cl)c(C(=O)c2ccc(C#N)cc2)c1F)C1CC1 [Example 128, (3R)-3-{[(R)-{4-chloro-3-[(4-cyanophenyl)-carbonyl]-2-fluorophenyl}(cyclo-propyl)methyl]amino}-butanamide] | 0.28 | < 1 | 
C[C@@H](CC(N)=O)N[C@@H](c1ccc(Cl)c(C(=O)c2ccc(C#N)cc2)c1F)C1CC1 [Example 129, (3S)-3-{[(R)-{4-chloro-3-[(4-cyanophenyl)-carbonyl]-2-fluorophenyl}(cyclo-propyl)methyl]amino}-butanamide] |  |  | inhibition at 0.03 µM: 36%
C[C@H](CC(N)=O)N[C@@H](c1ccc(Cl)c(C(=O)c2ccncc2)c1F)C1CC1 [Example 130, (3R)-3-{[(R)-{4-chloro-2-fluoro-3-[(pyridin-4-yl)carbonyl]phenyl}-(cyclopropyl)methyl]-amino}butanamide] | 1.5 | 1 to 5 | 
CC[C@@H](N[C@H](C)C1(C(N)=O)CC1)c1ccc(Cl)c(C(=O)c2cccnc2)c1F [Example 131, 1-[(1R)-1-{[(1R)-1-{4-chloro-2-fluoro-3-[(pyridin-3-yl)carbonyl]phenyl}-propyl]-amino}ethyl]-cyclopropane-1-carboxamide] | 7.9 |  | IC50 [3]: < 30 µM
CC[C@@H](N[C@H](C)CC(N)=O)c1ccc(Cl)c(C(=O)c2cnc(N)cn2)c1F [Example 135, (3R)-3-{[(1R)-1-{3-[(5-aminopyrazin-2-yl)carbonyl]-4-chloro-2-fluorophenyl}propyl]-amino}butanamide] | 3.4 | 1 to 5 | 
CC[C@@H](N[C@@H](C)CC(N)=O)c1ccc(Cl)c(C(=O)c2ccc(N(C)C)nc2)c1F [Example 136, (3S)-3-{[(1R)-1-(4-chloro-3-{[6-(dimethylamino)pyridin-3-yl]carbonyl}-2-fluorophenyl)propyl]-amino}butanamide] | 0.83 | < 1 | 
CC[C@@H](N[C@H](C)CC(N)=O)c1ccc(Cl)c(C(=O)c2ccc(N(C)C)nc2)c1F [Example 137, (3R)-3-{[(1R)-1-(4-chloro-3-{[6-(dimethylamino)pyridin-3-yl]carbonyl}-2-fluorophenyl)propyl]amino}butanamide] |  |  | inhibition at 30 µM: 60%; IC50 [3]: < 30 µM
CC[C@@H](N[C@@H](C)CC(N)=O)c1ccc(Cl)c(C(=O)c2cnc(N)cn2)c1F [Example 138, (3S)-3-{[(1R)-1-{3-[(5-aminopyrazin-2-yl)carbonyl]-4-chloro-2-fluorophenyl}propyl]-amino}butanamide] | 0.31 | < 1 | 
